Results published in patent publication US9018203B2, “Pharmaceutical composition of salicylanilide-derived small molecules and preparation and application thereof” (National Defense Medical Center, priority 2012, dated 2015).

How the values were obtained:
[1] = MTT cell viability assay in RAW 264.7 cells; assay type: cell-based, murine; conditions: mouse; for CC50 at 24 hr: read-out: Cell viability: CC50 (cytotoxic concentration that produces 50% cell survival); for viability at 24 hr, 10 µM: 10 μM compound, read-out: Cell viability: Survival rate at 10 μM (%)
Protocol: (§1) Cell viability was measured by MTT assay in RAW 264.7 cells upon treatment with 10 μM compounds for 24 hr. CC50 (the cytotoxic concentration that produces 50% cell survival) were identified in this example.

RAW 264.7 cells [2] = experiment: MTT cell viability assay in RAW 264.7 cells; assay type: cell-based, murine; conditions: 24 hr; for Cell viability: Survival rate at 10 μM (%): 10 μM compound; for CC50: read-out: Cell viability: CC50 (cytotoxic concentration that produces 50% cell survival)
Protocol: as §1

RAW 264.7 cells [3] = experiment: TRAP staining and activity assay of RANKL-induced osteoclastogenesis; assay type: cell-based, murine; conditions: 10 μM compound; for Osteoclastogenesis: TRAP+ MNCS at 10 μM (%): 100 ng/mL RANKL, 5 days, relative to RANKL without drug; for Inhibitory activity on osteoclastogenesis (in words) / Inhibition of osteoclast differentiation, TRAP staining (FIG. 1 C, D, E): RANKL
Protocol: The murine RAW 264.7 cell was an osteoclast precursor cell. RAW 264.7 cells were cultured in DMEM (Gibco BRL), 10% FBS, Penicillin (100 U/L), Streptomycin (100 U/L), 5% CO2, 37° C. To induce the murine RAW 264.7 cells differentiation, the cells were cultured in 96-well culture dish 10^4 cell per dish with α-MEM, 10% FBS, 2 mM L-glutamate, Penicillin (100 U/L), Streptomycin (100 U/L), with or without 100 ng/mL RANKL for 5 days, and added or not added tested drug, replaced the fresh medium at 3 day. The cells were TRAP^+ stained and analyzed the activity, then washed the cells by PBS and fixed by 3.7% formaldehyde for 30 minutes, then washed by PBS. The cells were reacted in Leukocyte Acid Phosphatase Assay kit (Sigma) at 37° C. for 1 hr, and washed by distilled water for three times and counted the multinucleated cells numbers by microscopy.
After treatment with RANKL and 10 μM compounds in RAW 264.7, the osteoclasts were counted percentage of the TRAP^+ cells (TRAP^+ MNCS %, the denominator was the number of cells which was treated with RANKL but without drug, and the numerator was the number of cells which was treated with RANKL and drug).

RAW 264.7 cells [4] = experiment: Pit formation assay (bone resorption); assay type: cell-based, murine; conditions: RANKL, 10 μM compound
Protocol: In pit formation assay, RAW 264.7 cells were cultured in DMEM (Gibco BRL) 10% FBS, Penicillin (100 U/L), streptomycin (100 U/L), 5% CO2 at 37° C. To induce the murine RAW 264.7 cell differentiation, the cells were cultured in 96-well culture dish 10^4 cell per dish with α-MEM, 10% FBS, 2 mM L-glutamate, Penicillin (100 U/L), Streptomycin (100 U/L), with or without 100 ng/mL RANKL for 5 days in the present or absent tested drug, replaced the fresh medium at 3 day. The 24-well plate were washed by PBS and added in 0.5 mL/well chloride solution, stood at room-temperature for 10 minutes for destroying the cell, then stained with 0.1% Toluidine Blue 0.5 mL/well, and washed by distilled water for three times and photographed under microscopy.

SMILES | CC50 at 24 hr [1] | Cell viability: Survival rate at 10 μM (%) (RAW 264.7 cells [2]) | Osteoclastogenesis: TRAP+ MNCS at 10 μM (%) (RAW 264.7 cells [3]) | Inhibitory activity on osteoclastogenesis (in words) (RAW 264.7 cells [3]) | viability at 24 hr, 10 µM [1] | melting point | Inhibition of osteoclast differentiation, TRAP staining (FIG. 1 C, D, E) (RAW 264.7 cells [3]) | Bone resorption, erosion of bone slices (FIG. 2 C, D) (RAW 264.7 cells [4]) | CC50 (RAW 264.7 cells [2])
COc1ccc(C(=O)O)c(O)c1 [2-hydroxy-4-methoxy-benzoic acid, reference compound] | > 40 µM | 99.4 ± 7.6% | 79.6 ± 8.3% | did not perform significant inhibitory activity | – | – | – | – | –
O=C(O)c1ccccc1O [Salicylic acid, reference compound] | > 40 µM | – | – | did not perform significant inhibitory activity | – | – | – | – | –
O=C(Nc1ccc(Cl)cc1F)c1ccccc1O [compound 1a, N-(4-chloro-2-fluorophenyl)-2-hydroxybenzamide] | 21.3 ± 3.4 µM | – | 49.4±5.4% | – | 93 ± 3.1% | 184 to 185 °C | – | – | –
COc1ccccc1C(=O)Nc1ccc(Cl)cc1F [compound 1b, N-(4-chloro-2-fluorophenyl)-2-methoxybenzamide] | > 40 µM | 101.8 ± 4.5% | 86.0 ± 9.9% | – | – | 111 to 112 °C | – | – | –
O=C(Nc1ccc(Cl)cc1F)c1ccccc1OCc1ccc(F)cc1F [compound 1c, N-(4-chloro-2-fluorophenyl)-2-((2,4-difluorobenzyl)oxy)benzamide] | > 40 µM | 107.2 ± 4.5% | 74.6 ± 6.2% | – | – | 121 to 122 °C | – | – | –
O=c1oc2ccccc2c(=O)n1-c1ccc(Cl)cc1F [compound 1d, 3-(4-chloro-2-fluorophenyl)-2H-benzo[e][1,3]oxazine-2,4(3H)-dione] | > 40 µM | 97.9 ± 2.0% | 3.4±2.1% | – | – | – | significant inhibition of differentiation | the resorption hole was reduced | –
COc1ccc(C(=O)Nc2ccc(Cl)cc2F)c(O)c1 [compound 2a, N-(4-chloro-2-fluorophenyl)-2-hydroxy-4-methoxybenzamide] | – | 103.0 ± 2.8% | 23.8±3.4% | – | – | 186 to 187 °C | significant inhibition of differentiation | the resorption hole was reduced | 32.3 ± 4.9 µM
COc1ccc(C(=O)Nc2ccc(Cl)cc2F)c(OC)c1 [compound 2b, N-(4-chloro-2-fluorophenyl)-2,4-dimethoxybenzamide] | – | 52.9 ± 2.8% | 60.2 ± 3.6% | – | – | 155 to 156 °C | – | – | 13.6 ± 1.2 µM
COc1ccc(C(=O)Nc2ccc(Cl)cc2F)c(OCc2ccc(F)cc2F)c1 [compound 2c, N-(4-chloro-2-fluorophenyl)-2-((2,4-difluorobenzyl)oxy)-4-methoxybenzamide] | > 40 µM | 107.3 ± 4.4% | 68.7 ± 4.6% | – | – | 134 to 135 °C | – | – | –
COc1ccc2c(=O)n(-c3ccc(Cl)cc3F)c(=O)oc2c1 [compound 2d, 3-(4-chloro-2-fluorophenyl)-7-methoxy-2H-benzo[e][1,3]oxazine-2,4(3H)-dione] | > 40 µM | 100.5 ± 2.4% | 36.0±1.8% | – | – | 203 to 204 °C | significant inhibition of differentiation | – | –
O=C(Nc1ccc(F)cc1F)c1ccccc1O [compound 3a, N-(2,4-difluorophenyl)-2-hydroxybenzamide] | > 40 µM | – | 85.9 ± 6.2% | – | 104 ± 3.6% | 186 to 187 °C | – | – | –
COc1ccccc1C(=O)Nc1ccc(F)cc1F [compound 3b, N-(2,4-difluorophenyl)-2-methoxybenzamide] | > 40 µM | 108.5 ± 4.0% | 89.1 ± 5.1% | – | – | 86 to 87 °C | – | – | –
O=C(Nc1ccc(F)cc1F)c1ccccc1OCc1ccc(F)cc1F [compound 3c, 2-((2,4-difluorobenzyl)oxy)-N-(2,4-difluorophenyl)benzamide] | > 40 µM | 101.1 ± 3.2% | 97.6 ± 6.0% | – | – | 135 to 136 °C | – | – | –
O=c1oc2ccccc2c(=O)n1-c1ccc(F)cc1F [compound 3d, 3-(2,4-difluorophenyl)-2H-benzo[e][1,3]oxazine-2,4(3H)-dione] | > 40 µM | – | 69.8 ± 7.7% | – | 105 ± 6.3% | 182 to 183 °C | – | – | –
COc1ccc(C(=O)Nc2ccc(F)cc2F)c(O)c1 [compound 4a, N-(2,4-difluorophenyl)-2-hydroxy-4-methoxybenzamide] | > 40 µM | – | 41.3±8.6% | – | 105 ± 4.7% | 180 to 181 °C | – | – | –
COc1ccc(C(=O)Nc2ccc(F)cc2F)c(OC)c1 [compound 4b, N-(2,4-difluorophenyl)-2,4-dimethoxybenzamide] | > 40 µM | 102.5 ± 9.3% | 93.0 ± 7.7% | – | – | 138 to 139 °C | – | – | –
COc1ccc(C(=O)Nc2ccc(F)cc2F)c(OCc2ccc(F)cc2F)c1 [compound 4c, 2-((2,4-difluorobenzyl)oxy)-N-(2,4-difluorophenyl)-4-methoxybenzamide] | > 40 µM | 106.0 ± 8.8% | 66.2 ± 8.1% | – | – | 131 to 132 °C | – | – | –
COc1ccc2c(=O)n(-c3ccc(F)cc3F)c(=O)oc2c1 [compound 4d, 3-(2,4-difluorophenyl)-7-methoxy-2H-benzo[e][1,3]oxazine-2,4(3H)-dione] | > 40 µM | – | 87.9 ± 9.1% | – | 102 ± 9.1% | 138 to 139 °C | – | – | –
